Test results published in patent publication US20100298141A1, “SUBSTITUTED PYRIDINE N-OXIDE HERBICIDES” (E. I. DU PONT DE NEMOURS AND COMPANY, priority 2007, published 2010).

Assays:
corn = assay: Test A pre-/postemergence greenhouse test; type: in vivo, Zea mays; conditions: for Corn plant response rating: 0 to 100 scale; for Plant response rating, Corn: 0 to 100 scale where 0 is no effect and 100 is complete control
Method in brief: (§1)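 Herbicidal effect is a visual injury score given about ten days post-treatment by comparison with untreated controls. Preemergence plots received a directed spray onto sown loam–sand soil; postemergence plants, at the one- to two-leaf stage and 2–10 cm tall, were sprayed at the same time.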

barnyardgrass = assay: Test A pre-/postemergence greenhouse test; type: in vivo, Echinochloa crus-galli; conditions: for Barnyardgrass plant response rating: 0 to 100 scale; for Plant response rating, Barnyardgrass: 0 to 100 scale where 0 is no effect and 100 is complete control
Method in brief: as §1

Goosegrass = assay: Test C pre-/postemergence test; type: in vivo, Eleusin indica
Method in brief: (§2)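 Seeds were planted and treated preemergence with test chemical in a non-phytotoxic solvent mixture containing surfactant. Postemergence applications of the same formulation went onto plants 2 to 18 cm tall (1- to 4-leaf stage). A dash marks no test result.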

Surinam grass = assay: Test C pre-/postemergence test; type: in vivo, Brachiaria decumbens
Method in brief: as §2

eastern black nightshade = assay: Test C pre-/postemergence test; type: in vivo, Solanum ptycanthum
Method in brief: as §2

[1] = tested on: common (oilseed) sunflower; assay: Test C pre-/postemergence test; type: in vivo, Helianthus annuus
Method in brief: as §2

redroot pigweed = assay: Test A pre-/postemergence greenhouse test; type: in vivo, Amaranthus retroflexus; conditions: for Pigweed plant response rating: 0 to 100 scale; for Plant response rating, Pigweed: 0 to 100 scale where 0 is no effect and 100 is complete control
Method in brief: as §1

rice = assay: Test C flooded paddy test; type: in vivo, Oryza sativa; conditions: Flood
Method in brief: (§3)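 Under a constant 3 cm flood, test compounds went directly into the paddy water. Following 13 to 15 days of greenhouse growth, treated species and controls were compared by eye.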

bermudagrass = assay: Test C pre-/postemergence test; type: in vivo, Cynodon dactylon
Method in brief: as §2

wheat [2] = assay: Test C pre-/postemergence test; type: in vivo, Triticum aestivum
Method in brief: as §2

morningglory = assay: Test A pre-/postemergence greenhouse test; type: in vivo, Ipomoea spp.; conditions: for Morningglory plant response rating: 0 to 100 scale; for Plant response rating, Morningglory: 0 to 100 scale where 0 is no effect and 100 is complete control
Method in brief: as §1

pigweed = assay: Test C pre-/postemergence test; type: in vivo, Amaranthus retroflexus
Method in brief: as §2

wheat [3] = assay: Test A pre-/postemergence greenhouse test; type: in vivo, Triticum aestivum; conditions: for Wheat plant response rating: 0 to 100 scale; for Plant response rating, Wheat: 0 to 100 scale where 0 is no effect and 100 is complete control
Method in brief: as §1

crabgrass = assay: Test C pre-/postemergence test; type: in vivo, Digitaria sanguinalis
Method in brief: as §2

giant foxtail = assay: Test A pre-/postemergence greenhouse test; type: in vivo, Setaria faberi; conditions: for Foxtail, Giant plant response rating: 0 to 100 scale; for Plant response rating, Foxtail, Giant: 0 to 100 scale where 0 is no effect and 100 is complete control
Method in brief: as §1

lambsquarters = assay: Test C pre-/postemergence test; type: in vivo, Chenopodium album
Method in brief: as §2

umbrella sedge = assay: Test C flooded paddy test; type: in vivo, Cyperus difformis; conditions: Flood
Method in brief: as §3

[4] = Postemergence, 500 g ai/ha, 0 is no effect, 100 is complete control
[5] = Postemergence, 125 g ai/ha, 0 is no effect, 100 is complete control
[6] = Preemergence, 125 g ai/ha, 0 no effect, 100 complete control
[7] = 31 g ai/ha, Preemergence, scale 0 to 100
[8] = 62 g ai/ha, preemergence, scale 0 (no effect) to 100 (complete control)
[9] = preemergence, 125 g ai/ha, scale 0 (no effect) to 100 (complete control)
[10] = 31 g ai/ha, scale 0 to 100 (0 no effect, 100 complete control)
[11] = 62 g ai/ha, scale 0 to 100, 0 no effect, 100 complete control, 13 to 15 days
[12] = 125 g ai/ha, scale 0 to 100, 0 no effect, 100 complete control, 13 to 15 days
[13] = 250 g ai/ha, scale 0 to 100 (0 no effect, 100 complete control)
[14] = 62 g ai/ha, Preemergence, scale 0 to 100
[15] = 125 g ai/ha, preemergence, scale 0 (no effect) to 100 (complete control)
[16] = Preemergence, 31 g ai/ha, scale 0 to 100 (0 no effect, 100 complete control)
[17] = preemergence, 250 g ai/ha, scale 0 (no effect) to 100 (complete control)
[18] = 62 g ai/ha, scale 0 to 100 (0 no effect, 100 complete control)
[19] = 250 g ai/ha, scale 0 to 100, 0 no effect, 100 complete control, 13 to 15 days

With Cn1nc(C(F)(F)F)c(CS(=O)(=O)c2ccc(Cl)c[n+]2[O-])c1OC(F)F [Compound 7] the “Corn plant response rating” value (corn; [4]) was 20, the “Plant response rating, Corn” value (corn; Preemergence, 500 g ai/ha) was 30 and the “Barnyardgrass plant response rating” value (barnyardgrass; [5]) was 10. The “Barnyardgrass plant response rating” value (barnyardgrass; [6]) was 90, the “Plant response rating, Barnyardgrass” value (barnyardgrass; Preemergence, 500 g ai/ha) was 90 and the “Goosegrass plant response rating” value (Goosegrass; [7]) was 100. For the same molecule, the “Goosegrass plant response rating” value (Goosegrass; [8]) was 100, the “Plant response rating (0 to 100), Goosegrass” value (Goosegrass; Preemergence, 250 g ai/ha) was 100 and the “Goosegrass plant response rating” value (Goosegrass; [9]) was 100. The “Surinam Grass plant response rating” value (Surinam grass; [8]) was 20, the “Plant response rating (0 to 100), Surinam Grass” value (Surinam grass; Preemergence, 250 g ai/ha) was 70 and the “Surinam Grass plant response rating” value (Surinam grass; [9]) was 30. For the same molecule, the “Nightshade plant response rating” value (eastern black nightshade; [7]) was 0, the “Nightshade plant response rating” value (eastern black nightshade; [8]) was 50 and the “Plant response rating (0 to 100), Nightshade” value (eastern black nightshade; Preemergence, 250 g ai/ha) was 95. The “Nightshade plant response rating” value (eastern black nightshade; [9]) was 50, the “Sunflower plant response rating” value [1, 8] was 0 and the “Plant response rating (0 to 100), Sunflower” value ([1]; Preemergence, 250 g ai/ha) was 0. For the same molecule, the “Sunflower plant response rating” value [1, 9] was 0, the “Pigweed plant response rating” value (redroot pigweed; [5]) was 60 and the “Pigweed plant response rating” value (redroot pigweed; [4]) was 70. The “Pigweed plant response rating” value (redroot pigweed; [6]) was 100, the “Plant response rating, Pigweed” value (redroot pigweed; Preemergence, 500 g ai/ha) was 100 and the “Plant response rating, Rice” value (rice; [10]) was 0. For the same molecule, the “Plant response rating, Rice” value (rice; [11]) was 0, the “Plant response rating, Rice” value (rice; [12]) was 15 and the “Plant response rating, Rice” value (rice; [13]) was 15. The “Bermudagrass plant response rating” value (bermudagrass; [7]) was 100, the “Bermudagrass plant response rating” value (bermudagrass; [8]) was 100 and the “Plant response rating (0 to 100), Bermudagrass” value (bermudagrass; Preemergence, 250 g ai/ha) was 100. For the same molecule, the “Bermudagrass plant response rating” value (bermudagrass; [9]) was 100, the “Wheat plant response rating” value (wheat [2]; [8]) was 10 and the “Plant response rating (0 to 100), Wheat” value (wheat [2]; Preemergence, 250 g ai/ha) was 30. The “Wheat plant response rating” value (wheat [2]; [9]) was 20, the “Morningglory plant response rating” value (morningglory; [4]) was 10 and the “Plant response rating, Morningglory” value (morningglory; Preemergence, 500 g ai/ha) was 30. The “Pigweed plant response rating” value (pigweed; [7]) was 100, the “Pigweed plant response rating” value (pigweed; [8]) was 100 and the “Plant response rating (0 to 100), Pigweed” value (pigweed; Preemergence, 250 g ai/ha) was 100. For the same molecule, the “Pigweed plant response rating” value (pigweed; [9]) was 100, the “Wheat plant response rating” value (wheat [3]; [5]) was 0 and the “Wheat plant response rating” value (wheat [3]; [4]) was 20. For the same molecule, the “Wheat plant response rating” value (wheat [3]; [6]) was 20, the “Plant response rating, Wheat” value (wheat [3]; Preemergence, 500 g ai/ha) was 50 and the “Crabgrass, Large plant response rating” value (crabgrass; [7]) was 100. For the same molecule, the “Crabgrass, Large plant response rating” value (crabgrass; [8]) was 100, the “Plant response rating (0 to 100), Crabgrass, Large” value (crabgrass; Preemergence, 250 g ai/ha) was 100 and the “Crabgrass, Large plant response rating” value (crabgrass; [9]) was 100. The “Foxtail, Giant plant response rating” value (giant foxtail; [5]) was 30, the “Foxtail, Giant plant response rating” value (giant foxtail; [4]) was 70 and the “Foxtail, Giant plant response rating” value (giant foxtail; [6]) was 90. For the same molecule, the “Plant response rating, Foxtail, Giant” value (giant foxtail; Preemergence, 500 g ai/ha) was 90, the “Lambsquarters plant response rating” value (lambsquarters; [7]) was 0 and the “Lambsquarters plant response rating” value (lambsquarters; [8]) was 0. The “Plant response rating (0 to 100), Lambsquarters” value (lambsquarters; Preemergence, 250 g ai/ha) was 100, the “Lambsquarters plant response rating” value (lambsquarters; [9]) was 80 and the “Plant response rating, Sedge, Umbrella” value (umbrella sedge; [10]) was 0. The “Plant response rating, Sedge, Umbrella” value (umbrella sedge; [11]) was 40, the “Plant response rating, Sedge, Umbrella” value (umbrella sedge; [12]) was 55 and the “Plant response rating, Sedge, Umbrella” value (umbrella sedge; [13]) was 60.

CC(Oc1c(C[S+]([O-])c2cccc[n+]2[O-])c(C(F)(F)F)nn1C)C(F)(F)F (stereo not shown) [Compound 77] was tested, and the “Plant response rating, Corn” value (corn; Postemergence, 125 g ai/ha) was 50, the “Corn plant response rating” value (corn; [4]) was 60 and the “Corn plant response rating” value (corn; [6]) was 50. For the same molecule, the “Plant response rating, Corn” value (corn; Preemergence, 500 g ai/ha) was 80, the “Plant response rating, Barnyardgrass” value (barnyardgrass; Postemergence, 125 g ai/ha) was 80 and the “Barnyardgrass plant response rating” value (barnyardgrass; [4]) was 90. The “Barnyardgrass plant response rating” value (barnyardgrass; [6]) was 90, the “Plant response rating, Barnyardgrass” value (barnyardgrass; Preemergence, 500 g ai/ha) was 100 and the “Goosegrass plant response rating” value (Goosegrass; [14]) was 100. The “Goosegrass plant response rating” value (Goosegrass; [15]) was 100, the “Plant response rating, Goosegrass” value (Goosegrass; [16]) was 95 and the “Goosegrass plant response rating” value (Goosegrass; [17]) was 100. For the same molecule, the “Surinam Grass plant response rating” value (Surinam grass; [14]) was 100, the “Surinam Grass plant response rating” value (Surinam grass; [15]) was 100 and the “Plant response rating, Surinam Grass” value (Surinam grass; [16]) was 85. The “Surinam Grass plant response rating” value (Surinam grass; [17]) was 100, the “Nightshade plant response rating” value (eastern black nightshade; [14]) was 100 and the “Nightshade plant response rating” value (eastern black nightshade; [15]) was 100. The “Plant response rating, Nightshade” value (eastern black nightshade; [16]) was 100, the “Nightshade plant response rating” value (eastern black nightshade; [17]) was 100 and the “Sunflower plant response rating” value [1, 14] was 0. For the same molecule, the “Sunflower plant response rating” value [1, 15] was 80, the “Plant response rating, Sunflower” value [1, 16] was 0 and the “Sunflower plant response rating” value [1, 17] was 98. For the same molecule, the “Plant response rating, Pigweed” value (redroot pigweed; Postemergence, 125 g ai/ha) was 70, the “Pigweed plant response rating” value (redroot pigweed; [4]) was 80 and the “Pigweed plant response rating” value (redroot pigweed; [6]) was 70. For the same molecule, the “Plant response rating, Pigweed” value (redroot pigweed; Preemergence, 500 g ai/ha) was 100, the “Plant response rating, Rice” value (rice; [18]) was 30 and the “Plant response rating, Rice” value (rice; [19]) was 70. For the same molecule, the “Bermudagrass plant response rating” value (bermudagrass; 62 g ai/ha, Preemergence, scale 0 to 100 (0 no effect, 100 complete control)) was 100, the “Bermudagrass plant response rating” value (bermudagrass; [15]) was 100 and the “Plant response rating, Bermudagrass” value (bermudagrass; [16]) was 100. For the same molecule, the “Bermudagrass plant response rating” value (bermudagrass; [17]) was 100, the “Wheat plant response rating” value (wheat [2]; [14]) was 40 and the “Wheat plant response rating” value (wheat [2]; [15]) was 80. The “Plant response rating, Wheat” value (wheat [2]; [16]) was 20, the “Wheat plant response rating” value (wheat [2]; [17]) was 95 and the “Plant response rating, Morningglory” value (morningglory; Postemergence, 125 g ai/ha) was 70. For the same molecule, the “Morningglory plant response rating” value (morningglory; [4]) was 90, the “Morningglory plant response rating” value (morningglory; [6]) was 70 and the “Plant response rating, Morningglory” value (morningglory; Preemergence, 500 g ai/ha) was 100. The “Pigweed plant response rating” value (pigweed; [14]) was 100, the “Pigweed plant response rating” value (pigweed; [15]) was 100 and the “Plant response rating, Pigweed” value (pigweed; [16]) was 100. The “Pigweed plant response rating” value (pigweed; [17]) was 100, the “Plant response rating, Wheat” value (wheat [3]; Postemergence, 125 g ai/ha) was 50 and the “Wheat plant response rating” value (wheat [3]; [4]) was 70. The “Wheat plant response rating” value (wheat [3]; [6]) was 50, the “Plant response rating, Wheat” value (wheat [3]; Preemergence, 500 g ai/ha) was 100 and the “Crabgrass, Large plant response rating” value (crabgrass; [14]) was 100. The “Crabgrass, Large plant response rating” value (crabgrass; [15]) was 100, the “Plant response rating, Crabgrass, Large” value (crabgrass; [16]) was 80 and the “Crabgrass, Large plant response rating” value (crabgrass; [17]) was 100. The “Plant response rating, Foxtail, Giant” value (giant foxtail; Postemergence, 125 g ai/ha) was 80, the “Foxtail, Giant plant response rating” value (giant foxtail; [4]) was 90 and the “Foxtail, Giant plant response rating” value (giant foxtail; [6]) was 90. The “Plant response rating, Foxtail, Giant” value (giant foxtail; Preemergence, 500 g ai/ha) was 100, the “Lambsquarters plant response rating” value (lambsquarters; [14]) was 100 and the “Lambsquarters plant response rating” value (lambsquarters; [15]) was 100. For the same molecule, the “Plant response rating, Lambsquarters” value (lambsquarters; [16]) was 100, the “Lambsquarters plant response rating” value (lambsquarters; [17]) was 100 and the “Plant response rating, Sedge, Umbrella” value (umbrella sedge; [18]) was 100. The “Plant response rating, Sedge, Umbrella” value (umbrella sedge; [19]) was 100.
